{
  "source": "patent US11591601B2",
  "about": "“Methods for identification and modification of lncRNA associated with target genotypes and phenotypes” (The Broad Institute, Inc., priority 2017, dated 2023)",
  "origin": "cited, not measured here",
  "data": [
    {"tested_on": "Factor VII", "conditions": "hepatocytes in vivo, Factor VII gene silencing model", "values": [
      {"molecule": "1,2-dilinoleyloxy-keto-N,N-dimethyl-3-aminopropane [DLinKDMA]", "gene silencing potency series of LNP siRNA systems containing the lipid": "DLinKC2-DMA>DLinKDMA>DLinDMA>>DLinDAP"},
      {"molecule": "CCCCC/C=C\\C/C=C\\CCCCCCCC(=O)OCC(CN(C)C)OC(=O)CCCCCCC/C=C\\C/C=C\\CCCCC", "note": "(stereo not shown) [DLinDAP, 1,2-dilineoyl-3-dimethylammonium-propane]", "gene silencing potency series of LNP siRNA systems containing the lipid": "DLinKC2-DMA>DLinKDMA>DLinDMA>>DLinDAP"},
      {"molecule": "CCCCC/C=C\\C/C=C\\CCCCCCCCOCC(CN(C)C)OCCCCCCCC/C=C\\C/C=C\\CCCCC", "note": "(stereo not shown) [DLinDMA, 1,2-dilinoleyloxy-3-N,N-dimethylaminopropane]", "gene silencing potency series of LNP siRNA systems containing the lipid": "DLinKC2-DMA>DLinKDMA>DLinDMA>>DLinDAP"},
      {"molecule": "CCCCC/C=C\\C/C=C\\CCCCCCCCC1(CCCCCCCC/C=C\\C/C=C\\CCCCC)OCC(CCN(C)C)O1", "note": "(stereo not shown) [DLinKC2-DMA, 1,2-dilinoleyl-4-(2-dimethylaminoethyl)[1,3]-dioxolane]", "gene silencing potency series of LNP siRNA systems containing the lipid": "DLinKC2-DMA>DLinKDMA>DLinDMA>>DLinDAP"}
    ]}
  ]
}
